Source: publication PMC6864762, “Angiotensin-I-Converting Enzyme Inhibitory Activity of Coumarins from Angelica decursiva” (Molecules, 2019)

Key:
[1] = molecular target: T1, ACE (Oryctolagus cuniculus, UniProt P12822); assay: ACE inhibitory activity assay with FAPGG as substrate; conditions: for Inhibitory effect on ACE (in words): structure–activity discussion of Table 2
T1 sequence (P12822 34-1310): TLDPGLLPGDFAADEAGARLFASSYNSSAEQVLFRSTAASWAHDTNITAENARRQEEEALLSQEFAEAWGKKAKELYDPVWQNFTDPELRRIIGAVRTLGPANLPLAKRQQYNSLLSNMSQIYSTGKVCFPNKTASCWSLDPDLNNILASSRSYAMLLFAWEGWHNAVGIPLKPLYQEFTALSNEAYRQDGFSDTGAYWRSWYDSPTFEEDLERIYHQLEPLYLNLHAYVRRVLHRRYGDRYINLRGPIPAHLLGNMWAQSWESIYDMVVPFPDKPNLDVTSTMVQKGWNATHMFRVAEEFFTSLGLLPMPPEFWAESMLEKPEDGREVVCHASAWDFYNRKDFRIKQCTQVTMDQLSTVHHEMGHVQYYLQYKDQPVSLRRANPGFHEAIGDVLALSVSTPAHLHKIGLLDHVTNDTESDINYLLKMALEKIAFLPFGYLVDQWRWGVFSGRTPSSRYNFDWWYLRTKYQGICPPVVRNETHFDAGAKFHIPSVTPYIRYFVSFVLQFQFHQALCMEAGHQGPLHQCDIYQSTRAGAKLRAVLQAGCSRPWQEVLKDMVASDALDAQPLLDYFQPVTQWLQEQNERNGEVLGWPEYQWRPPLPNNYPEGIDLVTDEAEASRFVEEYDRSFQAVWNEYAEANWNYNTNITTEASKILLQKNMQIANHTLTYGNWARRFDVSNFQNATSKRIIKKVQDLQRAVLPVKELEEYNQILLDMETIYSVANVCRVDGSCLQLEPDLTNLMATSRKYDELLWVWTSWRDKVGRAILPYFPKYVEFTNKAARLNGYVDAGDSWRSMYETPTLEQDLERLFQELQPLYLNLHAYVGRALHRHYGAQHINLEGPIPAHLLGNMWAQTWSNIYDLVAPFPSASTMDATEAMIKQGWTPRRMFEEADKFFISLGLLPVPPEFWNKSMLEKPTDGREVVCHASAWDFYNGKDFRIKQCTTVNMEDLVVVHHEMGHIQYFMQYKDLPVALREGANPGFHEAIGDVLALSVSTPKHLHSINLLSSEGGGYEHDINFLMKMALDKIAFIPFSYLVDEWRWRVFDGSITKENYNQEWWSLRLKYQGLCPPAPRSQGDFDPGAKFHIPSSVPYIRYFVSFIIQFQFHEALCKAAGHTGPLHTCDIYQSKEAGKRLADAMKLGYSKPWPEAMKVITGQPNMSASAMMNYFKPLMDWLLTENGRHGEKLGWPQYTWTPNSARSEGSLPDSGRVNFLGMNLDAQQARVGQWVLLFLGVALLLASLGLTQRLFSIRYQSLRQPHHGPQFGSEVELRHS
Procedure: The ACE inhibitory activity of 18 compounds was conducted according to Hyun et al. [8] and modified to use FAPGG as the substrate. In brief, FAPGG (0.5 mM) and various concentrations of the samples were completely dissolved in 50 mM Tris–HCl buffer (pH 7.5).

[2] = test system: ACE; parameters: method as in earlier work; conditions: ref 25 (Hyun et al.); cited from earlier work
[3] = molecular target: T1, ACE; assay: Enzyme kinetics of ACE inhibition (Lineweaver–Burk and secondary plots); assay type: biochemical, rabbit; parameters: ACE (1 Unit, rabbit lung); purchased Sigma Chemical Company (St Louis, MO, USA); host or cells: rabbit lung (tissue-derived); conditions: for Type of Inhibition: Lineweaver–Burk plot and secondary plot, FAPGG 0.1–0.5 mM; for Ki: from secondary plot of slope (Km,app/Vmax,app) versus inhibitor
Procedure: All chemicals and solvents used for column chromatography were of reagent grade and purchased from commercial sources, unless otherwise stated.
To determine the inhibition mechanisms, ACE inhibition was evaluated by monitoring the effects of different concentrations of substrate […]. The reaction mixture consisted of different concentrations of FAPGG (0.1–0.5 mM), as the substrate, and ACE in 50 mM Tris–HCl buffer. Several concentrations of each sample were added to the reaction mixture. The tested concentrations of coumarins are as follows: 12 (0, 2.5, 5, and 10 µM); 13 (0, 2.5, 5, and 10 µM); 15 (0, 1.28, 2.56, and 5.12 µM). Inhibition constants (Ki) were determined by interpretation of the secondary plots from Lineweaver–Burk plot.

SMILES	IC50 [1] [µM]	also measured
CC(C)(O[C@@H]1O[C@H](CO)[C@@H](O)[C@H](O)[C@H]1O)[C@H]1Cc2cc3ccc(=O)oc3cc2O1 [Compound 1, nodakenin]	112.5 ± 0.71	ACE inhibitory activity (in words) [2]: promising ACE inhibitory activity
CC(C)(O)[C@H]1Cc2cc3ccc(=O)oc3cc2O1 [Compound 2, nodakenetin]	102.3 ± 0.29	
CC(C)(OC1OC(CO)C(O)C(O)C1O)C1Cc2cc3ccc(=O)oc3c(O)c2O1 (stereo not drawn) [Compound 3, isorutarine]	68.36 ± 0.27	
O=c1ccc2ccc(O)cc2o1 [Compound 4, umbelliferone]		ACE inhibitory activity (in words) [2]: promising ACE inhibitory activity
O=C(O)c1cc2ccc(=O)oc2cc1O [Compound 5, umbelliferone 6-carboxylic acid]	156.1 ± 0.41	Inhibitory effect on ACE (in words) [1]: moderate inhibitory effects; ACE inhibitory activity (in words) [2]: promising ACE inhibitory activity
O=C(O)c1ccc(O)cc1 [Compound 6, para-hydroxy benzoic acid]	492.4 ± 0.89	
CC(C)c1cc2cc3ccc(=O)oc3cc2o1 [Compound 8, 2′-isopropyl psoralene]	311.1 ± 0.33	Inhibitory effect on ACE (in words) [1]: weak activity
C/C=C(\C)C(=O)O[C@@H]1c2c(ccc3ccc(=O)oc23)OC(C)(C)[C@@H]1OC(C)=O [Compound 9, 3′(R)-O-acetyl-4′(S)-O-tigloylkhellactone]	89.36 ± 0.38	
C/C=C(/C)C(=O)O[C@@H]1c2c(ccc3ccc(=O)oc23)OC(C)(C)[C@@H]1OC(C)=O [Compound 10, cis-3′-acetyl-4′-angeloylkhellactone]	71.48 ± 0.47	
CC1(C)Oc2cc3oc(=O)ccc3cc2C[C@@H]1O [Compound 11, decursinol]	18.3 ± 0.61	
C/C=C(/C)C(=O)O[C@H]1[C@H](O)c2cc3ccc(=O)oc3cc2OC1(C)C [Compound 12, 4′-hydroxy Pd-C-III]	9.41 ± 0.69	Type of Inhibition [3]: competitive inhibition; Ki [3]: 1.98 µM
CC(C)=CC(=O)O[C@H]1[C@H](O)c2cc3ccc(=O)oc3cc2OC1(C)C [Compound 13, Pd-C-I]	6.75 ± 0.43	Type of Inhibition [3]: competitive inhibition; Ki [3]: 2.35 µM
CC(C)=CC(=O)O[C@@H]1c2cc3ccc(=O)oc3cc2OC(C)(C)[C@H]1OC(=O)C=C(C)C [Compound 14, decursidin]	20 ± 0.79	
CC1(C)Oc2cc3oc(=O)ccc3cc2[C@@H](O)[C@@H]1O [Compound 15, (+)-trans-decursidinol]	4.68 ± 0.22	Type of Inhibition [3]: competitive inhibition; Ki [3]: 0.59 µM
CC(C)=CC(=O)O[C@@H]1c2cc3ccc(=O)oc3cc2OC(C)(C)[C@H]1O [Compound 16, Pd-C-II]	12.4 ± 0.27	
C/C=C(/C)C(=O)O[C@H]1[C@H](OC(C)=O)c2cc3ccc(=O)oc3cc2OC1(C)C [Compound 17, Pd-C-III]	15.2 ± 0.39	
CO[C@@H]1c2cc3ccc(=O)oc3cc2OC(C)(C)[C@H]1OC(=O)C=C(C)C [Compound 18, 4′-methoxy Pd-C-I]	16 ± 0.92	
